Source: ChEMBL document CHEMBL5120781, “α-Glucosidase Inhibitors from the Stems of Knema globularia” (J Nat Prod, 2022)
Calls of active or inactive are those of the source. The rule behind the calls is not given here.

Molecular target: not listed separately
Assay: Inhibition of yeast alpha-glucosidase using p-nitrophenyl-alpha-D-glucopyranoside as substrate preincubated with enzyme for 10 mins followed by substrate addition measured after 20 mins by spectrophotometric method
Parameters: species or system Saccharomyces cerevisiae

Structure (SMILES) | IC50 [nM]
O=C(/C=C/c1ccc2oc(-c3ccc(O)cc3)c(C(=O)c3ccc(O)cc3O)c2c1)c1ccc(O)cc1O | 3200
O=C(/C=C/c1ccc(O)c([C@@H]2C(=O)c3c(O)cc(O)cc3O[C@H]2c2ccc(O)cc2)c1)c1ccc(O)cc1O | 2500
COc1ccc(C(=O)[C@@H](c2coc3cc(O)ccc3c2=O)C(c2ccc(O)cc2)c2ccc(O)cc2)c(O)c1 | 6100
CCCCCCCCCCCC1=C(O)C(=O)C=C(O)C1=O [EMBELIN] | 2400
CCCCCCCCCCCC1=C(O)C(=O)C2=C(Oc3cc(O)c4c(c3C2(C)C)O[C@@H](c2ccc(O)c(O)c2)[C@H](O)C4)C1=O | 2000
COc1ccc(-c2coc3cc4c(c(OC)c3c2=O)OCO4)cc1 | > 200000
COc1ccc(-c2coc3cc4c(c(OC)c3c2=O)OCO4)cc1OC | 178000
O=C(/C=C/c1ccc2c(c1)[C@H](C(=O)c1ccc(O)cc1O)[C@@H](c1ccc(O)cc1)O2)c1ccc(O)cc1O | 2300
CCCCCCCCCCCCCC1=C(O)C(=O)C2=C(Oc3cc(O)c4c(c3C2(C)C)O[C@@H](c2ccc(O)c(O)c2)[C@H](O)C4)C1=O | 1600
C[C@H]1O[C@H](O[C@H]2[C@H](O)[C@@H](O)[C@@H](O[C@H]3[C@H](O)[C@@H](O)C(O)O[C@@H]3CO)O[C@@H]2CO)[C@H](O)[C@@H](O)[C@@H]1N[C@H]1C=C(CO)[C@@H](O)[C@H](O)[C@H]1O (stereo partly drawn) [ACARBOSE] | 93600
O=C(/C=C/c1ccc2c(c1)[C@@H](C(=O)c1ccc(O)cc1O)[C@H](c1ccc(O)cc1)O2)c1ccc(O)cc1O | 5600
O=C(/C=C/c1ccc(O)cc1)c1c(O)cc(O)c2c(C(=O)c3ccc(O)cc3O)c(-c3ccc(O)cc3)oc12 | 1300
CCCCCCCCCCCCCC1=C(O)C(=O)C=C(O)C1=O [Rapanone] | 1800
O=C(CCc1ccc(O)cc1)c1c(O)cc(O)c2c(C(=O)c3ccc(O)cc3O)c(-c3ccc(O)cc3)oc12 | 400
CCCCCCCCCCCCCCCC1=C(O)C(=O)C2=C(Oc3cc(O)c4c(c3C2(C)C)O[C@@H](c2ccc(O)c(O)c2)[C@H](O)C4)C1=O | 1400
O=C(C[C@@H]1C(=O)c2ccc(O)cc2O[C@H]1c1ccc(O)cc1)c1ccc(O)cc1O | 26600

Molecular target: not listed separately
Assay: Non-competitive inhibition of yeast alpha-glucosidase using p-nitrophenyl-alpha-D-glucopyranoside as substrate by Lineweaver-Burk double reciprocal plot analysis
Parameters: species or system Saccharomyces cerevisiae

Structure (SMILES) | Ki [nM]
O=C(CCc1ccc(O)cc1)c1c(O)cc(O)c2c(C(=O)c3ccc(O)cc3O)c(-c3ccc(O)cc3)oc12 | 3400

Tested on: Saccharomyces cerevisiae
Assay: Non-competitive inhibition of yeast alpha-glucosidase assessed as decrease in Vmax with constant Km using p-nitrophenyl-alpha-D-glucopyranoside as substrate by Lineweaver-Burk double reciprocal plot analysis

Structure (SMILES) | inhibition
O=C(CCc1ccc(O)cc1)c1c(O)cc(O)c2c(C(=O)c3ccc(O)cc3O)c(-c3ccc(O)cc3)oc12 | Active
